Measured values: ChEMBL document CHEMBL5038634, “Virtual Screening Directly Identifies New Fragment-Sized Inhibitors of Carboxylesterase Notum with Nanomolar Activity” (J Med Chem, 2022)
In brackets after ≈: the same amount, converted by molar mass. Several values for one entry are separate records, joined by “and”; a condition that tells them apart may be missing. Equal values may be shown once.

How the values were obtained:
[1] = target: T1, Palmitoleoyl-protein carboxylesterase NOTUM (Homo sapiens, UniProt Q6P988, C330S); test: Inhibition of human Notum (81 to 451 Cys330Ser) using OPTS as substrate incubated for 40 mins by fluorescence based assay
[2] = target: T1, Palmitoleoyl-protein carboxylesterase NOTUM; test: Inhibition of Notum (81 to 451 Cys330Ser) in HEK293T cells expressing TCF-LEF assessed as activation of Wnt signaling using WNT3A as substrate incubated for […] by Steady-Glo luciferase assay; assay type: cell-based
HEK-293T [3] = test: Cytotoxicity against HEK293T cells expressing TCF-LEF assessed as adverse effects on cell health by Cell Titre Glo assay; assay type: toxicity, cell-based; conditions: human
HEK-293T [4] = test: Cytotoxicity against HEK293T cells expressing TCF-LEF assessed as effect on total cell number by GFP based assay; assay type: toxicity; conditions: human
[5] = C0 in C57BL/6J mouse at 0.4 mg/kg, iv measured at 0.08 to 24 hrs by LC-MS/MS analysis; assay type: ADME, organism-based; conditions: in vivo, time 0.08-24 hrs
[6] = Half life in C57BL/6J mouse at 0.4 mg/kg, iv measured at 0.08 to 24 hrs by LC-MS/MS analysis; assay type: ADME, organism-based; conditions: in vivo, time 0.08-24 hrs
[7] = Volume of distribution at steady state in C57BL/6J mouse at 0.4 mg/kg, iv measured at 0.08 to 24 hrs by LC-MS/MS analysis; assay type: ADME, organism-based; conditions: in vivo, time 0.08-24 hrs, read-out: Vdss
[8] = Clearance in C57BL/6J mouse at 0.4 mg/kg, iv measured at 0.08 to 24 hrs by LC-MS/MS analysis; assay type: ADME, organism-based; conditions: in vivo, time 0.08-24 hrs
[9] = AUC (infinity) in C57BL/6J mouse at 0.4 mg/kg, iv measured at 0.08 to 24 hrs by LC-MS/MS analysis; assay type: ADME, organism-based; design: route intravenous, time upper 24 hrs, time lower 0.08 hrs, dose 0.4 mg/kg; conditions: in vivo
[10] = AUC (all) in C57BL/6J mouse at 0.4 mg/kg, iv measured at 0.08 to 24 hrs by LC-MS/MS analysis; assay type: ADME, organism-based; design: route intravenous, time 0.08-24 hrs, dose 0.4 mg/kg; conditions: in vivo
[11] = Drug concentration in C57BL/6J mouse brain at 0.4 mg/kg, iv measured at 1 hr by LC-MS/MS analysis; assay type: ADME, organism-based; conditions: read-out: Drug uptake
[12] = Drug concentration in C57BL/6J mouse brain at 0.4 mg/kg, iv measured at 4 hrs by LC-MS/MS analysis; assay type: ADME, organism-based; conditions: read-out: Drug uptake
[13] = Apparent permeability from apical to basolateral side in dog MDCKII-MDR1 cells at 10 uM incubated upto 120 mins by LC-MS/MS analysis; assay type: ADME, cell-based, Canis lupus familiaris; conditions: MDCK-MDR1
[14] = Aqueous solubility of the compound at pH 7.4 in pION buffer at 500uM incubated for 18 hrs by spectrophotometry analysis; assay type: physicochemical
[15] = Intrinsic clearance in mouse liver microsome at 1 uM incubated upto 60 mins in presence of NADPH by LC-MS/MS analysis; assay type: ADME; conditions: liver microsomes, read-out: CLH
[16] = Plasma protein binding in CD-1 mouse assessed as unbound fraction at 2 uM by Equilibrium dialysis method; assay type: ADME, cell-free
[17] = Acidic dissociation constant, pKa of the compound at pH 7.4; assay type: physicochemical
[18] = Plasma protein binding in CD-1 mouse at 2 uM by Equilibrium dialysis method; assay type: ADME, cell-free; conditions: read-out: PPB (converted)
[19] = Apparent permeability from basolateral to apical side in dog MDCKII-MDR1 cells at 10 uM incubated upto 120 mins by LC-MS/MS analysis; assay type: ADME, cell-based, Canis lupus familiaris; conditions: MDCK-MDR1
[20] = Stability in mouse liver microsome assessed as half life at 1 uM incubated upto 60 mins in presence of NADPH by LC-MS/MS analysis; assay type: ADME; conditions: liver microsomes
[21] = Apparent permeability in MDCKII-MDR1 cells assessed as compound recovery at 10 uM incubated upto 120 mins by LC-MS/MS analysis; assay type: ADME, cell-based, Canis lupus familiaris; conditions: dog, MDCK-MDR1, read-out: Activity

Row | Structure (SMILES) | IC50 [1] | EC50 [2] | further results
1 | O=c1[nH]nc2ccc(Sc3ccc(C(F)(F)F)cc3)nn12 | 0.028 µM | 0.3 µM | 
2 | O=c1[nH]nc2ccc(Sc3ccc(Cl)c(Cl)c3)nn12 | 0.005 µM | 0.11 µM | Activity (HEK-293T [3]): Non-Toxic; Activity (HEK-293T [4]): Non-Toxic; C0 [5]: 1580 ng/mL; half-life [6]: 42 min; Vd [7]: 0.7 L/kg; clearance [8]: 17.8 mL/min/kg; AUC(0-inf) [9]: 370 ng·h/mL; AUC [10]: 360 ng·h/mL; concentration at 1 h [11]: < 5 ng/mL; concentration at 4 h [12]: < 5 ng/mL
3 | Cc1ccc(Sc2ccc3n[nH]c(=O)n3n2)nc1 | 3.6 µM |  | 
4 | Cc1ccc(/C=C2/N=C(c3cccc(Cl)c3Cl)OC2=O)o1 | 0.022 µM |  | 
5 | O=c1[nH]nc2ccc(Sc3cccc(C(F)(F)F)n3)nn12 | 0.41 µM | > 10 µM | 
6 | O=c1[nH]nc2ccc(Sc3ccccc3F)nn12 | 0.087 µM | 1.1 µM | 
7 | O=c1[nH]nc2ccc(Sc3ccccc3C(F)(F)F)nn12 | 0.089 µM | 0.93 µM | 
8 | COc1ccc(/C=C2/N=C(c3cccc(Cl)c3Cl)OC2=O)c(OC)c1 | > 10 µM |  | 
9 | O=c1[nH]nc2ccc(Sc3cccc(F)c3)nn12 | 0.03 µM | 0.26 µM | 
10 | Cc1cccc(Sc2ccc3n[nH]c(=O)n3n2)n1 | 0.65 µM | > 10 µM | 
11 | Cc1cccc(Sc2ccc3n[nH]c(=O)n3n2)c1 | 0.009 µM | 0.24 µM | 
12 | O=c1[nH]nc2ccc(Sc3ccc(F)c(F)c3)nn12 | 0.12 µM | 1.1 µM | 
13 | Cc1ccc(Sc2ccc3n[nH]c(=O)n3n2)cc1C | 0.007 µM | 0.13 µM | 
14 | O=C1OC(c2cccc(Cl)c2Cl)=N/C1=C/c1ccco1 | 0.012 µM |  | 
15 | Cc1ccccc1COc1nn2c(=O)c(C)nnc2s1 | 0.32 µM and 1.6 µM |  | 
16 | O=c1[nH]nc2ccc(Sc3ccccc3Cl)nn12 | 0.03 µM | 0.72 µM | 
17 | O=c1[nH]nc2ccc(Sc3cccc(OC(F)(F)F)c3)nn12 | 0.004 µM | 0.034 µM | Activity (HEK-293T [3]): Non-Toxic; Activity (HEK-293T [4]): Non-Toxic; C0 [5]: 1900 ng/mL; half-life [6]: 6 min; Vd [7]: 0.2 L/kg; clearance [8]: 24.8 mL/min/kg; AUC(0-inf) [9]: 270 ng·h/mL; AUC [10]: 270 ng·h/mL; concentration at 1 h [11]: < 5 ng/mL; concentration at 4 h [12]: < 5 ng/mL
18 | O=c1[nH]nc2ccc(Sc3cccc(Cl)c3)nn12 | 0.006 µM | 0.088 µM | Activity (HEK-293T [3]): Non-Toxic; Activity (HEK-293T [4]): Non-Toxic; C0 [5]: 1750 ng/mL; half-life [6]: 18 min; Vd [7]: 0.3 L/kg; clearance [8]: 22.2 mL/min/kg; AUC(0-inf) [9]: 300 ng·h/mL; AUC [10]: 300 ng·h/mL; concentration at 1 h [11]: < 5 ng/mL; concentration at 4 h [12]: < 5 ng/mL
19 | O=c1[nH]nc2ccc(Sc3ccc(Cl)cc3)nn12 | 0.021 µM | 0.31 µM | 
20 | Cc1ccc(Sc2ccc3n[nH]c(=O)n3n2)cc1 | 0.027 µM | 0.086 µM | Papp A→B at 2 h, 10 µM [13]: 52 ×10⁻⁶ cm/s; solubility at 18 h, 500 µM [14]: 32 µg/mL and 120 µM; microsomal CLint at 1 µM [15]: 21 µL/min/mg; Activity (HEK-293T [3]): Non-Toxic; Activity (HEK-293T [4]): Non-Toxic; fraction unbound at 2 µM [16]: 0.011; pKa [17]: 7.9; fraction unbound at 2 µM [18]: 0.012; C0 [5]: 2620 ng/mL; half-life [6]: 36 min; Vd [7]: 0.1 L/kg; clearance [8]: 2.8 mL/min/kg; AUC(0-inf) [9]: 2350 ng·h/mL; AUC [10]: 2330 ng·h/mL; concentration at 1 h [11]: < 5 ng/mL; concentration at 4 h [12]: < 5 ng/mL; Papp B→A at 2 h, 10 µM [19]: 43 ×10⁻⁶ cm/s
21 | Cc1ccc(/C=C2\N=C(c3ccc(C)c(C)c3)OC2=O)o1 | 0.017 µM |  | solubility at 18 h, 500 µM [14]: 0.31 µg/mL (≈ 1.1 µM); microsomal CLint at 1 µM [15]: 1.9 µL/min/mg; half-life at 1 µM [20]: 360 min; recovery at 2 h, 10 µM [21]: < 25%
22 | O=c1[nH]nc2ccc(Sc3ccccc3)nn12 | 0.15 µM |  | 
23 | Cc1ccc(Oc2ccc3n[nH]c(=O)n3n2)cc1 | 3.1 µM |  | 
24 | O=C1OC(c2cccc3ccccc23)=N/C1=C/c1ccco1 | 0.1 µM |  | 
25 | Cc1ccccc1Sc1ccc2n[nH]c(=O)n2n1 | 0.05 µM | 0.3 µM | 
26 | Cc1cc(C)cc(Sc2ccc3n[nH]c(=O)n3n2)c1 | 0.047 µM |  | 
27 | COC(=O)CCC(=O)N1CCc2ccccc21 | 0.09 µM |  | 
28 | O=C1OC(c2ccc(Cl)cc2Cl)=N/C1=C/c1ccco1 | 0.048 µM |  | 

Row | Structure (SMILES) | IC50 [1] | EC50 [2] | further results
29 | Cc1ccc(S(=O)(=O)c2ccc3n[nH]c(=O)n3n2)cc1 | > 10 µM |  | 
30 | COc1cccc(Sc2ccc3n[nH]c(=O)n3n2)c1 | 0.015 µM | 0.14 µM | 
31 | Cc1ccc(Sc2ccc3nn(C)c(=O)n3n2)cc1 | > 10 µM |  | 
32 | Cc1ccc(C2=N/C(=C/c3ccccc3)C(=O)O2)cc1C | 0.2 µM |  | 
33 | O=c1[nH]nc2ccc(Sc3cccc(Cl)c3Cl)nn12 | 0.013 µM | 0.15 µM | 
34 | Cc1ccc(Nc2ccc3n[nH]c(=O)n3n2)cc1 | 0.69 µM |  | 
35 | O=c1[nH]nc2ccc(Sc3ncccn3)nn12 | > 10 µM |  | 
36 | O=c1[nH]nc2ccc(Sc3ccc(F)cc3)nn12 | 0.094 µM | 0.54 µM | 
37 | O=c1[nH]nc2ccc(Sc3ccc(Cl)cc3Cl)nn12 | 0.02 µM | 0.38 µM | 
38 | Cc1ccc(/C=C2/N=C(c3ccc(C)c(C)c3)OC2=O)o1 | 0.0085 µM |  | 
39 | O=c1[nH]nc2ccc(Sc3cccc(C(F)(F)F)c3)nn12 | 0.017 µM | 0.19 µM | 
40 | O=c1[nH]nc2ccc(Sc3cccc(F)c3F)nn12 | 0.063 µM |  | 
41 | Cc1ccc([S+]([O-])c2ccc3n[nH]c(=O)n3n2)cc1 (stereo unspecified) | > 10 µM |  | 
42 | O=C1OC(c2cccc(Cl)c2Cl)=N/C1=C/c1cccs1 | 0.054 µM |  | 
43 | CC(C)Oc1cccc(Sc2ccc3n[nH]c(=O)n3n2)c1 | 0.025 µM | 0.26 µM | 
44 | CSc1cccc(Sc2ccc3n[nH]c(=O)n3n2)c1 | 0.024 µM | 0.38 µM | 
45 | Cc1cccc(Sc2ccc3n[nH]c(=O)n3n2)c1C | 0.014 µM |  | 
46 | Cc1ccnc(Sc2ccc3n[nH]c(=O)n3n2)c1 | 2.7 µM |  | 
47 | Cc1ccc(Sc2nn3c(=O)[nH]nc3c(C)c2C)cc1 | > 10 µM |  | 
48 | Cc1ccc(C2=N/C(=C/c3cccs3)C(=O)O2)cc1C | 0.024 µM |  | 
49 | CCOc1cccc(Sc2ccc3n[nH]c(=O)n3n2)c1 | 0.02 µM | 0.15 µM | 
50 | Cc1ccc(Sc2ccc3n[nH]c(=O)n3n2)c(C)c1 | 0.027 µM | 0.3 µM | 
51 | Cc1ccc(Cc2ccc3n[nH]c(=O)n3n2)cc1 | 0.24 µM |  | 
52 | O=C1OC(c2ccc(Cl)cc2Cl)=N/C1=C\c1ccco1 | 0.014 µM |  | 
53 | Cc1ccc(N(C)c2ccc3n[nH]c(=O)n3n2)cc1 | 0.99 µM |  | 
54 | Cc1ccc(Sc2cc(C)c3n[nH]c(=O)n3n2)cc1 | 0.07 µM |  | 
55 | O=c1[nH]nc2ccc(Sc3ccncn3)nn12 | > 10 µM |  | 
